Reference: ChEMBL document CHEMBL1201862, “PubChem BioAssay data set” (2004)
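A five-concentration, 48-hour dose response in 96-well plates underlies each endpoint, interpolated linearly between surrounding concentrations. GI50 = concentration required for 50% inhibition of growth.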 The source made the active and inactive calls. No stated cut-off is given here; in the data, active = GI50 up to about 1.1 µM and inactive = higher.

Tests used:
Experiment in all cases: inhibition of tumour cell growth, NCI panel, 48 h
[1] = test system: HCT-15
[2] = test system: SW-620
[3] = test system: OVCAR-5
[4] = test system: EKVX
[5] = test system: HCC 2998
[6] = test system: DMS-114
[7] = test system: SK-OV-3
[8] = test system: SN12C
[9] = test system: UO-31
[10] = test system: MOLT-4
[11] = test system: SK-MEL-2
[12] = test system: CAKI-1
[13] = test system: A498
[14] = test system: NCI-H522
[15] = test system: SF-268
[16] = test system: CCRF-CEM
[17] = test system: XF498
[18] = test system: LOX IMVI
[19] = test system: Malme-3M
[20] = test system: KM-20L2
[21] = test system: OVCAR-3
[22] = test system: NCI-H23
[23] = test system: RPMI-8226
[24] = test system: NCI-H460
[25] = test system: K562
[26] = test system: M14
[27] = test system: RXF 631
[28] = test system: COLO 205
[29] = test system: KM12
[30] = test system: 786-0
[31] = test system: SF-295
[32] = test system: DLD-1
[33] = test system: ACHN
[34] = test system: HOP-92
[35] = test system: SNB-78
[36] = test system: SK-MEL-5
[37] = test system: OVCAR-8
[38] = test system: LXFL 529
[39] = test system: DMS-273
[40] = test system: UACC-62
[41] = test system: M19-MEL
[42] = test system: U-251
[43] = test system: SNB-75
[44] = test system: OVCAR-4
[45] = test system: TK-10
[46] = test system: SNB-19
[47] = test system: A549
[48] = test system: HT-29
[49] = test system: SK-MEL-28
[50] = test system: IGROV-1
[51] = test system: HOP-62
[52] = test system: RXF 393
[53] = test system: SF-539
[54] = test system: HCT-116
[55] = test system: UACC-257
[56] = test system: NCI-H226
[57] = test system: HL-60
[58] = test system: SR
[59] = test system: HOP-18

Nc1ccc(C(=O)N/C(=C\c2ccc3c(c2)OCO3)c2nc3ccc4c(c3[nH]2)C(=O)c2ccccc2C4=O)cc1
GI50 [1]: 42.2 µM | GI50 [2]: 27.2 µM (inactive) | GI50 [3]: > 100 µM (inactive) | GI50 [4]: 31.8 µM (inactive) | GI50 [5]: 43.3 µM (inactive) | GI50 [6]: 28.2 µM (inactive) | GI50 [7]: 23.1 µM (inactive) | GI50 [8]: 30.1 µM (inactive) | GI50 [9]: 2.64 µM (inactive) | GI50 [10]: 4.75 µM (inactive) | GI50 [11]: 21.1 µM (inactive) | GI50 [12]: 14.7 µM (inactive) | GI50 [13]: 14.4 µM (inactive) | GI50 [14]: 6.75 µM (inactive) | GI50 [15]: 12.4 µM (inactive) | GI50 [16]: 2.26 µM (inactive) | GI50 [17]: 93.8 µM (inactive) | GI50 [18]: 26.1 µM (inactive) | GI50 [19]: 61.8 µM (inactive) | GI50 [20]: 59.6 µM (inactive) | GI50 [21]: 32.9 µM (inactive) | GI50 [22]: 14.4 µM (inactive) | GI50 [23]: 3.68 µM (inactive) | GI50 [24]: 26.4 µM (inactive) | GI50 [25]: 25.5 µM (inactive) | GI50 [26]: 37.8 µM (inactive) | GI50 [27]: 37.3 µM (inactive) | GI50 [28]: 52.6 µM (inactive) | GI50 [29]: 17.8 µM (inactive) | GI50 [30]: 21.2 µM (inactive) | GI50 [31]: 41.7 µM (inactive) | GI50 [32]: 9.82 µM (inactive) | GI50 [33]: 13.9 µM (inactive) | GI50 [34]: 17.5 µM (inactive) | GI50 [35]: 45.9 µM (inactive) | GI50 [36]: 29 µM (inactive) | GI50 [37]: 29.6 µM (inactive) | GI50 [38]: 30.5 µM (inactive) | GI50 [39]: 23.6 µM (inactive) | GI50 [40]: 33.7 µM (inactive) | GI50 [41]: 38.2 µM (inactive) | GI50 [42]: 33 µM (inactive) | GI50 [43]: 19.9 µM (inactive) | GI50 [44]: 50.5 µM (inactive) | GI50 [45]: 23.1 µM (inactive) | GI50 [46]: 30 µM (inactive) | GI50 [47]: 21.1 µM (inactive) | GI50 [48]: 40.6 µM (inactive) | GI50 [49]: 33.1 µM (inactive) | GI50 [50]: 17.5 µM (inactive) | GI50 [51]: 36.8 µM (inactive) | GI50 [52]: 10.5 µM (inactive) | GI50 [53]: 21.6 µM (inactive) | GI50 [54]: 23.8 µM (inactive) | GI50 [55]: 58.7 µM (inactive)

Cc1cn(C2CC(N(C)C)C(CO)O2)c(=O)[nH]c1=O (configuration not stated)
GI50 [56]: > 100 µM (inactive) | GI50 [5]: > 100 µM (inactive) | GI50 [6]: > 100 µM (inactive) | GI50 [7]: > 100 µM (inactive) | GI50 [8]: > 100 µM (inactive) | GI50 [9]: > 100 µM (inactive) | GI50 [10]: > 100 µM (inactive) | GI50 [11]: > 100 µM (inactive) | GI50 [12]: > 100 µM (inactive) | GI50 [13]: > 100 µM (inactive) | GI50 [14]: > 100 µM (inactive) | GI50 [15]: > 100 µM (inactive) | GI50 [16]: > 100 µM (inactive) | GI50 [17]: > 100 µM (inactive) | GI50 [57]: > 100 µM (inactive) | GI50 [19]: > 100 µM (inactive) | GI50 [22]: > 100 µM (inactive) | GI50 [23]: > 100 µM (inactive) | GI50 [58]: > 100 µM (inactive) | GI50 [25]: > 100 µM (inactive) | GI50 [26]: > 100 µM (inactive) | GI50 [27]: > 100 µM (inactive) | GI50 [28]: > 100 µM (inactive) | GI50 [30]: > 100 µM (inactive) | GI50 [32]: > 100 µM (inactive) | GI50 [33]: > 100 µM (inactive) | GI50 [34]: > 100 µM (inactive) | GI50 [35]: > 100 µM (inactive) | GI50 [38]: > 100 µM (inactive) | GI50 [39]: > 100 µM (inactive) | GI50 [40]: > 100 µM (inactive) | GI50 [41]: > 100 µM (inactive) | GI50 [43]: > 100 µM (inactive) | GI50 [44]: > 100 µM (inactive) | GI50 [49]: > 100 µM (inactive) | GI50 [50]: > 100 µM (inactive) | GI50 [51]: > 100 µM (inactive) | GI50 [53]: > 100 µM (inactive) | GI50 [54]: > 100 µM (inactive)

O=C(N/C(=C\c1ccc(F)cc1)c1nc2ccccc2[nH]1)c1ccccc1
GI50 [1]: > 100 µM | GI50 [2]: > 100 µM (inactive) | GI50 [3]: > 100 µM (inactive) | GI50 [56]: > 100 µM (inactive) | GI50 [4]: > 100 µM (inactive) | GI50 [6]: > 100 µM (inactive) | GI50 [7]: > 100 µM (inactive) | GI50 [8]: > 100 µM (inactive) | GI50 [9]: > 100 µM (inactive) | GI50 [10]: > 100 µM (inactive) | GI50 [59]: > 100 µM (inactive) | GI50 [11]: > 100 µM (inactive) | GI50 [12]: > 100 µM (inactive) | GI50 [13]: > 100 µM (inactive) | GI50 [14]: > 100 µM (inactive) | GI50 [15]: > 100 µM (inactive) | GI50 [16]: > 100 µM (inactive) | GI50 [17]: > 100 µM (inactive) | GI50 [18]: > 100 µM (inactive) | GI50 [19]: > 100 µM (inactive) | GI50 [20]: > 100 µM (inactive) | GI50 [21]: > 100 µM (inactive) | GI50 [22]: > 100 µM (inactive) | GI50 [23]: > 100 µM (inactive) | GI50 [24]: > 100 µM (inactive) | GI50 [25]: > 100 µM (inactive) | GI50 [26]: > 100 µM (inactive) | GI50 [27]: > 100 µM (inactive) | GI50 [28]: > 100 µM (inactive) | GI50 [29]: > 100 µM (inactive) | GI50 [30]: > 100 µM (inactive) | GI50 [32]: > 100 µM (inactive) | GI50 [33]: > 100 µM (inactive) | GI50 [34]: 97.1 µM (inactive) | GI50 [35]: > 100 µM (inactive) | GI50 [36]: > 100 µM (inactive) | GI50 [37]: > 100 µM (inactive) | GI50 [38]: > 100 µM (inactive) | GI50 [40]: > 100 µM (inactive) | GI50 [41]: > 100 µM (inactive) | GI50 [42]: > 100 µM (inactive) | GI50 [43]: 56 µM (inactive) | GI50 [44]: > 100 µM (inactive) | GI50 [45]: > 100 µM (inactive) | GI50 [46]: > 100 µM (inactive) | GI50 [47]: > 100 µM (inactive) | GI50 [48]: > 100 µM (inactive) | GI50 [49]: > 100 µM (inactive) | GI50 [50]: > 100 µM (inactive) | GI50 [52]: > 100 µM (inactive) | GI50 [53]: > 100 µM (inactive) | GI50 [54]: > 100 µM (inactive) | GI50 [55]: > 100 µM (inactive)
